Measurements: paper PMC2583053, “snoRNA, a Novel Precursor of microRNA in Giardia lamblia” (PLoS Pathogens, 2008)

B1: miR2 (ssRNA)
RNA: CAGCCUAAUCACCGCCCCUAUAGUCC

Legend:
[1] = biological target: T1, GlAgo (Giardia Argonaute) (Giardia duodenalis, UniProt A8BCK6); test: m7GpppG-Sepharose affinity retention, elution with free m7GpppG, anti-His Western blot; type: binding; conditions: 20 mM HEPES pH 7.4, 150 mM KCl, 1 mM EDTA, 2 mM DTT; washed with 0.1 mM GTP, eluted with 0.1 mM m7GpppG
T1 construct: gene Ago; full-length ORF from Giardia genomic DNA in pET28b, His-tagged (C-terminal His6 encoded by reverse primer), expressed in E. coli BL21(DE3) with chaperones, Ni-NTA purified; strain WB is printed for the trophozoites used, not for the cloning DNA
T1 sequence (A8BCK6 1-900): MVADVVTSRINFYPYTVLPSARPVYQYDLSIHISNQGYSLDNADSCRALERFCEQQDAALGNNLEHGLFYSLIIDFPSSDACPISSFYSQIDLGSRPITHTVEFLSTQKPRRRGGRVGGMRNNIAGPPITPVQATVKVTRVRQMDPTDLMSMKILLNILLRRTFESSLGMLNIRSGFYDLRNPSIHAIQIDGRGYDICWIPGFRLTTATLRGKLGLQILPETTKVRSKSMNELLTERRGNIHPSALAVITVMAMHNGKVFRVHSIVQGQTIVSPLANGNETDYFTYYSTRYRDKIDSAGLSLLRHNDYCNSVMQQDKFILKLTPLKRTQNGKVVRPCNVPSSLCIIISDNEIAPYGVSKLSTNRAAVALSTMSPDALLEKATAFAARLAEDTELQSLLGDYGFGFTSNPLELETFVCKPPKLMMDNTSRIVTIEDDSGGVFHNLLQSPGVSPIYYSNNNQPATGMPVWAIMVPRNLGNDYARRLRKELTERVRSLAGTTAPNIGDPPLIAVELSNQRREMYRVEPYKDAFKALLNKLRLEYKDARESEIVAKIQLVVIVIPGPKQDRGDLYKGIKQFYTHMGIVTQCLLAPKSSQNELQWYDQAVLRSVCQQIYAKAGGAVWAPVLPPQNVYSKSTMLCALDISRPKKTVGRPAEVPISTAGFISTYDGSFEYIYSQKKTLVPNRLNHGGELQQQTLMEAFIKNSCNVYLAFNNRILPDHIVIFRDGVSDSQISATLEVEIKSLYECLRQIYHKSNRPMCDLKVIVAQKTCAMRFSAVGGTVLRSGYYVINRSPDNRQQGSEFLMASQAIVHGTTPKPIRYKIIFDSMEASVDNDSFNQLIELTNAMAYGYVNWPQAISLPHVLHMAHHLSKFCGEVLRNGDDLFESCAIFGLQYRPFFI

[2] = biological target: T2, GlAgo (Giardia Argonaute) (Giardia lamblia, UniProt A8BCK6 1-900); test: EMSA; 10 ng miR2; competed by unlabeled miR2 and by yeast RNA (no sequence specificity); EMSA: native 6% polyacrylamide gel, 10 ng radiolabeled miR2; binding buffer, pH and temperature not given in the material; conditions: protein: recombinant; tags: C-terminal 6xHis (encoded in reverse primer S6); single strand
T2 sequence: T1 sequence (A8BCK6 1-900)

| Molecule | m7GpppG-Sepharose affinity retention, elution with free m7GpppG, anti-His Wester [1] | binding result [2] |
| --- | --- | --- |
| C[n+]1cn([C@@H]2O[C@H](COP(=O)(O)OP(=O)(O)OP(=O)(O)OC[C@H]3O[C@@H](n4cnc5c(=O)[nH]c(N)nc54)[C@H](O)[C@@H]3O)[C@@H](O)[C@H]2O)c2nc(N)[nH]c(=O)c21 [m^7GpppG] | the protein was specifically eluted off the Sepharose beads with m^7GpppG | – |
| B1 | – | binds |
